Measured values: US10273240B2, “Cortistatin analogues, syntheses, and uses thereof” (President and Fellows of Harvard College, priority 2015, dated 2019)
Like-named read-outs stand apart in the source and are kept apart here.

Columns and labels:
HEL = experiment: Cell growth assay, HEL; format: cell-based; conditions: Homo sapiens, 240 h, CA, after 10 days, read-out: Mean GI50 (nM), HEL
Experimental: (§1) Cell Culture. All media was supplemented with 100 U/mL penicillin and 100 μg/mL streptomycin. Human cancer cell lines were grown in the following media: MV4; 11, RS4; 11, K562, HEL, MOLM-14, MEG-01 in RPMI-1640, 10% FBS; SET-2 in RPMI-1640, 20% FBS; UKE-1 in RPMI-1640, 10% FBS, 10% horse serum and 1 μM hydrocortisone; SKNO-1 and TF-1 in RPMI-1640, 10% FBS, and 10 or 2 ng/mL GM-CSF, respectively; HaCaT in DMEM, 10% FBS; and HCT116 in McCoy's 5 A, 10% FBS (proliferation assay) or DMEM, 10% FBS (gene expression study). HepG2, MV4;11, RS4;11, MEG-01, TF-1, HCT116 and K562 were from ATCC. SKNO-1 was from DSMZ. HEL, UKE-1, and SET-2 were provided by Ross L. Levine and HaCaT, MV4;11-mCLP, and MOLM-14 by Van Wilson, Andrew L. Kung, and Scott A. Armstrong, respectively. MOLM-14 cells were authenticated by STR profiling and flow cytometry and all cell lines were routinely tested and found to be negative for mycoplasma.

MV4;11 = experiment: Cell growth assay, MV4;11; format: cell-based; conditions: Homo sapiens
Experimental: All media was supplemented with 100 U/mL penicillin and 100 μg/mL streptomycin. Human cancer cell lines were grown in the following media: MV4; 11, K562, MOLM-14 in RPMI-1640, 10% FBS; SKNO-1 in RPMI-1640, 10% FBS, and 10 ng/mL GM-CSF; MV4;11 and K562 were from ATCC. SKNO-1 was from DSMZ.
as §1

CDK8 module = target: T1, CDK8 module (Homo sapiens, UniProt P49336); experiment: In vitro kinase assay, CDK8 module; format: biochemical
T1 construct: made in house
Experimental: Data was quantified with ImageJ and plotted and fitted with GraphPad Prism 6.0. For STAT1 transactivation domain (TAD), 750 ng of GST-STAT1 TAD (residues 639-750) was incubated with ˜50 ng recombinant CDK8 module at 30° C. for 8 min in kinase buffer (25 mM Tris pH 8, 2 mM DTT, 100 μM cold ATP, 100 mM KCl, 10 mM MgCl2 and 2.5 μCi [γ-^32P] ATP (Perkin Elmer) per reaction). […] 12% SDS-PAGE gels were subsequently silver stained, exposed for 18 h on a Phosphor Screen and imaged (Typhoon 9400, GE Life Sciences). For pol II CTD, 400 ng of GST-CTD (murine sequence) was incubated with ˜40 ng recombinant CDK8 module, 25 ng TFIIH, or 40 ng P-TEFb at 30° C. for 60 min in kinase buffer. Kinase amounts were chosen to give similar total pol II CTD signal. 9% SDS-PAGE gels were silver stained and exposed as above. In vitro FLAG-CDK8 kinase assays used ˜40 ng kinase and 500 ng GST-CTD. […] All experiments were performed twice.

RS4;11 = experiment: Cell growth assay, RS4;11; format: cell-based; conditions: Homo sapiens, RS4-11, 240 h; CA, after 10 days; read-out: Mean GI50 (nM), RS4;11
Experimental: as §1

[1] = test system: luciferase-expressing MV4;11 cells; experiment: MV4;11 xenotransplant model of disseminated human AML; format: in vivo; conditions: IP once daily for 15 days, NSG mice
Experimental: In Vivo Studies. Studies were performed at Charles River Laboratories (CRL) and Dana Farber Cancer Institute (DFCI) where indicated and approved by Harvard University and each institution's respective animal care and use committee. For pharmacokinetic studies, serial blood samples from 7 week old male CD-1 mice (n=3 per timepoint) were collected (no blinding) into K2EDTA tubes, centrifuged, transferred into 96-well plates (matrix tubes), stored at −20° C., and analysed by HPLC/MS/MS (in-life performed at CRL). Study size was determined by the need for three blood samples per timepoint with three blood samples collected per mouse. The MV4; 11 xenograft model were performed as previously described (Etchin, J. et al. Antileukemic activity of nuclear export inhibitors that spare normal hematopoietic cells. Leukemia 27, 66-74 (2013); in-life performed at DFCI) Two million MV4;11-mCLP cells were injected into the tail vein of 7-week-old female NOD-SCID-IL2Rcγ^null (NSG) mice (The Jackson Laboratory) and tumor burden was assessed by bioluminescence imaging (BLI) using an IVIS Spectrum system (Caliper Life Sciences). […] After 30 days, blood counts were obtained (Hemavet 950 F, Drew Scientific) and spleen, femur, and peripheral blood cells were collected and analysed by flow cytometry (LSR Fortessa, BD Biosciences) from 3 mice/group. […]

[2] = target: T2, CDK9 in MOLM-14 cell lysate (Homo sapiens, UniProt P50750); experiment: Native kinase capture immunoblot, CDK9; format: binding
T2 construct: endogenous in cells; host or cells: MOLM-14 cell lysate
Experimental: Native Kinase Capture Immunoblot and Native Kinome-Wide Profiling. […] Experiment was performed twice with one immunoblot shown.

[3] = test system: STAT1 S727 phosphorylation in NK cells; experiment: STAT1 pS727 inhibition in NK cells in vivo; conditions: C57BL/6 mice, NK cells from spleen
SET-2 = experiment: Cell growth assay, SET-2; format: cell-based; conditions: Homo sapiens
Experimental: as §1

[4] = test system: myeloid, mixed-lineage, and megakaryoblastic leukemia cell lines; experiment: Cell growth assay, leukemia cell lines in general; format: cell-based; conditions: Homo sapiens, 240 h; 10-day treatment

T2 sequence (P50750 whole entry): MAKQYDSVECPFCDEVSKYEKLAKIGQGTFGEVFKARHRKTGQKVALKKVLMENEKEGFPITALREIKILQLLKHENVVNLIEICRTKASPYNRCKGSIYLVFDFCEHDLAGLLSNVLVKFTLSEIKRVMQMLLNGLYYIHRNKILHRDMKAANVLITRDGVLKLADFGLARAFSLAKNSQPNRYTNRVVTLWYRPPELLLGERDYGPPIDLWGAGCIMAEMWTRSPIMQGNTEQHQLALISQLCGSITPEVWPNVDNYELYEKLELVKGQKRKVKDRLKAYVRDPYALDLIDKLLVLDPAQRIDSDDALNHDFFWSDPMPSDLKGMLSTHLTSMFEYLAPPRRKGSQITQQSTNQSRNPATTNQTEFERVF
T2 sequence (O60563 whole entry partner): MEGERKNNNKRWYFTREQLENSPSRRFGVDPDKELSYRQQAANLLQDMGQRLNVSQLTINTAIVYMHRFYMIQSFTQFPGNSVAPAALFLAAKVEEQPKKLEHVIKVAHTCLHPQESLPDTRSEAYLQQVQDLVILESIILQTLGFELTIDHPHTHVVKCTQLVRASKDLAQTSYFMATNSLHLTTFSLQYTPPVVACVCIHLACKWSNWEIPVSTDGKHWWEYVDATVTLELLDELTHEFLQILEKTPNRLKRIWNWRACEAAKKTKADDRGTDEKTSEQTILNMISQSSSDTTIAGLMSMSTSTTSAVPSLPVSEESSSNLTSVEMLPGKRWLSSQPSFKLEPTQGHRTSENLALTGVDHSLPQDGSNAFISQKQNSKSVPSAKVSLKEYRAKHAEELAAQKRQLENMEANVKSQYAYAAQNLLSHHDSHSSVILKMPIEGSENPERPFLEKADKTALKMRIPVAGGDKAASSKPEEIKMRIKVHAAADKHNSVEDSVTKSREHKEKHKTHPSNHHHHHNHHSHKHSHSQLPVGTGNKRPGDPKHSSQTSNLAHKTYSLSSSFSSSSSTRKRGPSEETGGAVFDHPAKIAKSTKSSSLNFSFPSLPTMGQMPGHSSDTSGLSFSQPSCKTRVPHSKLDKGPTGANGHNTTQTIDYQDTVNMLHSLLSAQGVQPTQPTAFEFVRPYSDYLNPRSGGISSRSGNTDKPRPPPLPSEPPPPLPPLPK

With CN(C)[C@H]1C[C@@]23CC[C@@]4(O2)C(=CC[C@@]2(C)[C@@H](c5ccc6ccncc6c5)CC[C@H]24)C=C3[C@@H](O)[C@@H]1O [CA, cortistatin A] the GI50 (HEL) was over 1000 nM, the GI50 (MV4;11; MV4-11, 240 h, CA, after 10 days, read-out: Mean GI50 (nM), MV4;11) was 6 nM and the GI50 (MV4;11; MV4-11, 240 h, read-out: MV4;11 GI50 day 10) was 3.5 nM. For the same molecule, the GI50 (MV4;11; MV4-11, Table 5, read-out: GI50 (nM), MV4;11) was 6 nM, the “inhibition of kinase activity of the CDK8 module” value (CDK8 module) was “potently inhibited” and the GI50 (RS4;11) was 3 nM. The “disease progression (bioluminescence, spleen weight, leukemia cell burden, survival)” value [1] was “dose-dependent reduction in disease progression”, the “median extension in survival” value [1] was 29.5 days and the “binding of CDK9 (no binding at up to)” value [2] was over 2500 nM. The “STAT1 S727 phosphorylation in NK cells” value [3] was “dose-dependent reduction”, the GI50 (SET-2; SET-2, 240 h, CA, after 10 days, read-out: Mean GI50 (nM), SET-2) was 4 nM and the GI50 (SET-2; SET-2, Table 5, read-out: GI50 (nM), SET2) was 4 nM. For the same molecule, the GI50 [4] was under 10 nM.
